Test results taken from paper PMC3507590 (Diabetes Care, 2012).
Like-named read-outs stand apart in the source and are kept apart here.

Columns and labels:
insulin receptors (IR) = settings: cited from earlier work
IGF-1 receptor (IGF-1R) = settings: cited from earlier work; for affinity for IGF-1 receptor versus human insulin: as stated in the abstract
animals = settings: in vivo in animals; cited from earlier work
[1] = system: subjects with type 1 and type 2 diabetes; settings: after multiple dosing; cited from earlier work
MCF-7 cells = settings: ref Pierre-Eugene et al., PLoS One 2012;7:e41992; cited from earlier work
[2] = system: malignant cell lines expressing primarily IGF-1R; settings: cited from earlier work
[3] = in vitro, 37°C, mass spectrometry; cited from earlier work
[4] = for detectability / plasma concentration after s.c. glargine: any dose (0.3-1.2 units/kg), any time point 3-30 h, LLOQ 33 pmol/L
[5] = system: insulin/IGF-1 hybrid receptors; settings: in vitro; ref Pierre-Eugene et al., PLoS One 2012;7:e41992; cited from earlier work
[6] = acidic pH; precipitates amorphously upon s.c. injection; cited from earlier work
[7] = in vitro; cited from earlier work

10^B-Asp-human insulin [X10, reference compound]
affinity for IR (insulin receptors (IR)): greater affinity
affinity for IGF-1R (IGF-1 receptor (IGF-1R)): greater affinity

21^A-Gly-31^B-Arg-32^B-Arg-human insulin [glargine, reference compound]
tumor growth promotion (animals): does not promote tumor growth
duration of action [1]: > 24 h
proliferative/antiapoptotic effects versus human insulin (MCF-7 cells): greater proliferative/antiapoptotic effects
potency on DNA synthesis (mitogenic effects) compared with human insulin ([2]; in vitro, malignant cell lines expressing primarily IGF-1R): greater potency
time for quantitative degradation into M1 in human serum [3]: ≤ 1 h
detectability / plasma concentration after s.c. glargine [4]: nearly always fall below LLOQ
detectability / plasma concentration after s.c. glargine ([4]; listed as Glargine): detectable in only one-third of subjects
potency for stimulation of insulin/IGF-1 hybrid receptors versus human insulin [5]: higher potency
affinity for IGF-1 receptor versus human insulin (IGF-1 receptor (IGF-1R); in vitro): slightly higher affinity
binding affinity for IGF-1R compared with human insulin (IGF-1 receptor (IGF-1R); in vitro): greater binding affinity
solubility [6]: Soluble at acidic pH

21^A-Gly-des-30^B-Thr-human insulin [M2]
mitogenic potential in vitro compared with glargine, and even with human insulin [2]: lower mitogenic potential
time of first appearance in plasma ([4]; after s.c. glargine, associated with high M1 concentration): first appeared after 12 h
potency for stimulation of insulin/IGF-1 hybrid receptors versus human insulin [5]: lower potency
metabolic properties relative to human insulin [7]: fully retaining its metabolic properties
affinity for IGF-1 receptor versus human insulin (IGF-1 receptor (IGF-1R); in vitro): lower affinity
affinity for IGF-1R compared with glargine, and even with human insulin (IGF-1 receptor (IGF-1R); in vitro): lower affinity

21^A-Gly-human insulin [M1]
mitogenic potential in vitro compared with glargine, and even with human insulin [2]: lower mitogenic potential
time of maximum plasma concentrations after subcutaneous injection of glargine ([4]; M1 PK profile, doses 0.3, 0.6, 1.2 units/kg): ~12 h
plasma concentration by 30 h versus baseline ([4]; doses >0.3 units/kg): still elevated over baseline
potency for stimulation of insulin/IGF-1 hybrid receptors versus human insulin [5]: lower potency
metabolic properties relative to human insulin [7]: fully retaining its metabolic properties
affinity for IGF-1 receptor versus human insulin (IGF-1 receptor (IGF-1R); in vitro): lower affinity
affinity for IGF-1R compared with glargine, and even with human insulin (IGF-1 receptor (IGF-1R); in vitro): lower affinity

31^B-Arg-32^B-Arg-human insulin [reference compound]
IGF-1R affinity compared with glargine (IGF-1 receptor (IGF-1R); in vitro): even greater IGF-1R affinity
